{"source": "patent US20220323408A1", "about": "“COMPOSITION USED FOR COMBATING METABOLIC DISEASES AND USES OF COMPOSITION” (Institute of Zoology, Chinese Academy of Sciences, priority 2019, published 2022)", "key": {"[1]": {"test_system": "diabetic DIO mice", "assay": "Body weight change in diabetic DIO mice, 4 weeks", "type": "in vivo", "settings": "30 mg/kg A alone or 5 mg/kg B alone per day"}, "[2]": {"test_system": "diet-induced obesity (DIO) male mice", "assay": "Body weight change in diet-induced obesity (DIO) mice, 10 days", "type": "in vivo", "settings": "30 mg/kg A alone or 5 mg/kg B alone per day i.p.", "protocol": "In addition, the control group and the experimental group of the present invention all adopt intraperitoneal injections in the process. The injection volume starts at 4 μl/g of body weight and can be adjusted according to the dose, in which the therapeutic agent A in the experimental group (aspirin (trade name Aspirin) is used in the following examples) is diluted in PBS to a dose between 0.3 mg/kg and 120 mg/kg of body weight, the therapeutic agent B (trimetazidine (trade name Trimetazidine) is used in the following examples) is diluted in PBS to a dose between 0.05 mg/kg and 500 mg/kg of body weight. In the control group, the same amount of the therapeutic agent A or the same amount of the therapeutic agent B alone is usually used, or only the same amount of PBS solvent is used as a blank control. Twenty 6-week-old diet-induced obesity (Jackson Lab's Diet-Induced Obese, DIO) male mice with similar physical status were selected and then divided into four groups, and the number of mice in each group was 5. […] The body weight of each mouse was recorded daily."}, "[3]": {"test_system": "p38 and AMPK signaling pathways", "assay": "Western blot of in vitro human primary skeletal muscle cells over 24 hours", "type": "cell-based", "settings": "100 mg/L A and/or 2 mg/L B, single agents vs DMSO control, weaker or slower than A+B", "protocol": "In vitro human primary skeletal muscle cells were used in the test, the cells were divided into four groups, and each group had six time points. For the experimental group, 100 mg/L of therapeutic agent A and 2 mg/L of therapeutic agent B were administered; for the control group 1, 100 mg/L of therapeutic agent A was administered; for the control group 2, 2 mg/L of therapeutic agent B was administered; and for the control group 3, the same amount of DMSO solvent was used as a blank control. The experiment was conducted 24 hours in total."}, "[4]": {"test_system": "diabetic DIO mice", "assay": "Serum indicators of hyperlipidemia, fatty liver and nitrogen metabolism in diabetic DIO mice", "type": "in vivo", "settings": "4 weeks, 30 mg/kg A and/or 5 mg/kg B per day, vs blank control group 3", "protocol": "Subsequent tests were performed on each group of mice that had completed the treatment of Example 8. Examples 9 and 10 detected two indicators related to obesity and hyperlipidemia: total cholesterol and LDL-cholesterol; Example 11 detected alanine aminotransferase (ALT), an indicator related to fatty liver disease; and Examples 12 and 13 detected two indicators related to nitrogen metabolism: albumin/globulin ratio and total protein."}, "[5]": {"test_system": "primary human skeletal muscle cells induced insulin resistance", "assay": "Western blot of primary human skeletal muscle cells with induced insulin resistance, 7 days", "type": "cell-based", "settings": "palmitic acid + TNFα 7 days, 100 mg/L A and/or 2 mg/L B on day 4, vs control group 3; for insulin sensitivity indicator phospho-Akt / insulin sensitivity indicator phospho-S6 / myosin heavy chain (MHC): single agents comparably weak", "protocol": "In vitro human primary skeletal muscle cells were used in the experiment, the cells were divided into six groups: for control group 1, the same amount of DMSO solvent was administered for 7 days as a blank control; for control group 2, the same amount of bovine serum albumin (BSA) was administered for 7 days as a fat solvent control; for control group 3, palmitic acid (Pal) and TNFα were administered for 7 days as a high-fat and inflammation-induced insulin resistance control; for control group 4, palmitic acid (Pal) and TNFα were administered for 7 days and 100 mg/L of therapeutic agent A was administered on day 4; for control group 5, palmitic acid (Pal) and TNFα were administered for 7 days and 2 mg/L of therapeutic agent B was administered on day 4; for the experimental group, palmitic acid (Pal) and TNFα were administered for 7 days and 100 mg/L of therapeutic agent A and 2 mg/L of therapeutic agent B were administered on day 4; afterwards, protein Western blot analysis was performed on each group of samples, as shown in FIG. 47."}, "[6]": {"test_system": "HFD (high-fat diet)-induced obesity and insulin resistance", "settings": "C57BL/6J mice; cited from earlier work"}, "[7]": {"assay": "LC-MS analysis of mouse serum 1 hour after administration", "type": "in vivo", "settings": "mice of control group 1 (30 mg/kg A); serum 1 hour later; LC-MS vs blank control group 3", "protocol": "Mice were grouped and administered according to the same method as in Example 8, except that serum samples from each group of mice were subjected to liquid phase mass spectrometry (LC-MS, Waters XBridge C18 column and Xevo G2-XS) analysis 1 hour later, and the most prominent small molecule markers were taken out, as shown in FIG. 51."}, "[8]": {"test_system": "pancreatic beta cells", "settings": "by reducing PGE2-mediated β-cell apoptosis; cited from earlier work"}, "[9]": {"settings": "long-term administration (3 to 24 hours)"}, "[10]": {"settings": "short-term administration (within 60 minutes)"}}, "data": [{"smiles": "COc1ccc(CN2CCNCC2)c(OC)c1OC", "note": "[therapeutic agent B, trimetazidine]", "values": [{"measurement": "effect on the body weight", "setting": "[1]", "result": "almost no obvious effect"}, {"measurement": "effect on the body weight", "setting": "[2]", "result": "almost no significant effect"}, {"measurement": "PGC1a", "setting": "[3]; [9]", "result": "could also down-regulate"}, {"measurement": "phospho-ACC", "setting": "[3]; [9]", "result": "could also down-regulate"}, {"measurement": "phospho-p38", "setting": "[3]; [9]", "result": "could also down-regulate"}, {"measurement": "PGC1a", "setting": "[3]; [10]", "result": "could also up-regulate"}, {"measurement": "phospho-ACC", "setting": "[3]; [10]", "result": "could also up-regulate"}, {"measurement": "phospho-AMPK", "setting": "[3]; [10]", "result": "could also up-regulate"}, {"measurement": "phospho-p38", "setting": "[3]; [10]", "result": "could also up-regulate"}, {"measurement": "LDL-cholesterol", "setting": "[4]", "result": "neither therapeutic agent A in control group 1 nor therapeutic agent B in control group 2 used alone was able to achieve significant therapeutic or restorative effects"}, {"measurement": "alanine aminotransferase (ALT)", "setting": "[4]", "result": "neither therapeutic agent A in control group 1 nor therapeutic agent B in control group 2 used alone was able to achieve significant therapeutic or restorative effects"}, {"measurement": "albumin/globulin ratio", "setting": "[4]", "result": "neither therapeutic agent A in control group 1 nor therapeutic agent B in control group 2 used alone was able to achieve significant therapeutic or restorative effects"}, {"measurement": "total cholesterol", "setting": "[4]", "result": "neither therapeutic agent A in control group 1 nor therapeutic agent B in control group 2 used alone was able to achieve significant therapeutic or restorative effects"}, {"measurement": "total protein", "setting": "[4]", "result": "neither therapeutic agent A in control group 1 nor therapeutic agent B in control group 2 used alone was able to achieve significant therapeutic or restorative effects"}, {"measurement": "cellular senescence indicator H3K9me3", "setting": "[5]", "result": "cannot achieve the same effect"}, {"measurement": "insulin sensitivity indicator phospho-Akt", "setting": "[5]", "result": "can also up-regulate"}, {"measurement": "insulin sensitivity indicator phospho-S6", "setting": "[5]", "result": "can also up-regulate"}, {"measurement": "myosin heavy chain (MHC)", "setting": "[5]", "result": "can also up-regulate"}]}, {"smiles": "COc1ccc2c(c1)c(CC(=O)O)c(C)n2C(=O)c1ccc(Cl)cc1", "note": "[Indomethacin]", "values": [{"measurement": "HFD (high-fat diet)-induced obesity", "setting": "[6]", "result": "prevent"}, {"measurement": "HFD-induced insulin resistance", "setting": "[6]", "result": "prevent"}]}, {"smiles": "CC(=O)Oc1ccccc1C(=O)O", "note": "[therapeutic agent A, aspirin]", "values": [{"measurement": "formation of salicylate derivatives in serum", "setting": "[7]", "result": "can effectively form a variety of salicylate derivatives in serum"}, {"measurement": "effect on the body weight", "setting": "[1]", "result": "almost no obvious effect"}, {"measurement": "effect on the body weight", "setting": "[2]", "result": "almost no significant effect"}, {"measurement": "PGC1a", "setting": "[3]; [9]", "result": "could also down-regulate"}, {"measurement": "phospho-ACC", "setting": "[3]; [9]", "result": "could also down-regulate"}, {"measurement": "phospho-p38", "setting": "[3]; [9]", "result": "could also down-regulate"}, {"measurement": "PGC1a", "setting": "[3]; [10]", "result": "could also up-regulate"}, {"measurement": "phospho-ACC", "setting": "[3]; [10]", "result": "could also up-regulate"}, {"measurement": "phospho-AMPK", "setting": "[3]; [10]", "result": "could also up-regulate"}, {"measurement": "phospho-p38", "setting": "[3]; [10]", "result": "could also up-regulate"}, {"measurement": "LDL-cholesterol", "setting": "[4]", "result": "neither therapeutic agent A in control group 1 nor therapeutic agent B in control group 2 used alone was able to achieve significant therapeutic or restorative effects"}, {"measurement": "alanine aminotransferase (ALT)", "setting": "[4]", "result": "neither therapeutic agent A in control group 1 nor therapeutic agent B in control group 2 used alone was able to achieve significant therapeutic or restorative effects"}, {"measurement": "albumin/globulin ratio", "setting": "[4]", "result": "neither therapeutic agent A in control group 1 nor therapeutic agent B in control group 2 used alone was able to achieve significant therapeutic or restorative effects"}, {"measurement": "total cholesterol", "setting": "[4]", "result": "neither therapeutic agent A in control group 1 nor therapeutic agent B in control group 2 used alone was able to achieve significant therapeutic or restorative effects"}, {"measurement": "total protein", "setting": "[4]", "result": "neither therapeutic agent A in control group 1 nor therapeutic agent B in control group 2 used alone was able to achieve significant therapeutic or restorative effects"}, {"measurement": "cellular senescence indicator H3K9me3", "setting": "[5]", "result": "can down-regulate"}, {"measurement": "insulin sensitivity indicator phospho-Akt", "setting": "[5]", "result": "can also up-regulate"}, {"measurement": "insulin sensitivity indicator phospho-S6", "setting": "[5]", "result": "can also up-regulate"}, {"measurement": "myosin heavy chain (MHC)", "setting": "[5]", "result": "can also up-regulate"}]}, {"smiles": "CS(=O)(=O)Nc1ccc([N+](=O)[O-])cc1OC1CCCCC1", "note": "[NS-398]", "values": [{"measurement": "β-cell dysfunction", "setting": "[8]", "result": "reverse"}]}]}
